This is an account of results in patent US9974784B2, “Inhibitors of activin-like receptor kinases” (The Texas A & M University System, priority 2015, dated 2018).

One series concerns BMP signaling. The note with it: pharmacological inhibition of BMP signaling; cited from earlier work.
Series [1] has as its target T1, ALK2 (Homo sapiens, UniProt Q04771).
T1 sequence (Q04771 21-509): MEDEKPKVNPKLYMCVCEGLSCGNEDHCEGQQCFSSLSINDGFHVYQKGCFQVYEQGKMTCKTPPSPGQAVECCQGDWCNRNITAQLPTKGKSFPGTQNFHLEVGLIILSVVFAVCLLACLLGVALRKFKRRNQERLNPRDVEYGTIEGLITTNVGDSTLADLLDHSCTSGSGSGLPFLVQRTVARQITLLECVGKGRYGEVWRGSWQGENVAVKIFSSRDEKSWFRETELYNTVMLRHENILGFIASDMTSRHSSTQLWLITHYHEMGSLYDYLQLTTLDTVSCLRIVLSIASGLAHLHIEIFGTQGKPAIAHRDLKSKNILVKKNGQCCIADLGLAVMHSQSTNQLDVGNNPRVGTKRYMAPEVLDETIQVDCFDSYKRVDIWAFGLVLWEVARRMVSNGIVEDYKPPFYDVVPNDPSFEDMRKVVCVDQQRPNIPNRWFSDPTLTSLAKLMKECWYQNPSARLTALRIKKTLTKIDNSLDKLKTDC
Nature of the series: SDS and native polyacrylamide gel electrophoresis analysis of ALK2 destabilization. The note with it: SDS-PAGE / gel electrophoresis, FIG. 8, increasing concentrations of test compound vs control compound. The method, then:
Destabilizing effects of a compound identified by a method of the claimed invention, were observed by SDS and native polyacrylamide gel electrophoresis analyses (FIG. 8), and were confirmed by monitoring protein unfolding with a hydrophobic fluoroprobe (SYPRO orange) in 96-well plate format with a quantitative PCR instrument (Thermofluor assay). The allosteric inhibitor shifted the melting temperature of Dorsomorphin-stabilized ALK2 from approximately 55° C. down to 35° C. in a concentration dependent manner that correlated with concentration dependent inhibition of ALK2 kinase activity.
The comparative stabilities of the kinase protein were tested at varying pH levels in the presence of compounds identified by the methods of the claimed invention. […] Thermofluor assays provide independent confirmation of the effect of decreasing pH on the stability (FIG. 10) and sensitivity to an allosteric destabilizer (FIG. 11) of the kinase protein. […] Hypoxic conditions typically occur in tissues that are faced with traumas such as those caused by surgery or injury.

The target in series [2] is T1, ALK2. Nature of the series: screening assay for compounds that bind an allosteric site of ALK2 and destabilize the protein. An excerpt: Screening assays were set up to identify compounds that were capable of binding to a specific location in ALK2. This location was a ring-shaped pocket that contains a single centrally located sidechain, that of a histidine in ALK1 and ALK2, and an aspartate in the other five receptor kinases of the family. Numerous compounds were docked in poses that wrap the scaffolds around the central “island” residue, with terminal groups oriented in a head-to-tail fashion. Covalent linkage of the juxtaposed groups to form macrocyclic compounds is likely feasible in many cases. Through reduction in the entropic cost of binding due to constraint of rotatable bonds, as well as other properties, macrocycles have become an attractive scaffold for medicinal chemists in modern drug discovery.
According to a further embodiment of the invention, a screening assay is carried out to identify compounds that bind to an allosteric site of ALK2 and cause destabilization of the protein.

As to `c1ccc2c(-c3cnn4cc(-c5ccc(N6CCNCC6)cc5)cnc34)ccnc2c1` [LDN-193189], the effect on muscle result in the series with BMP signaling was “leads to muscle wasting or cachexia”.

As for `Cc1onc(-c2ccccc2)c1C(=O)NCC1Cc2cccc(-c3ccccn3)c2O1` (centres unmarked) [compound 8, 5-methyl-3-phenyl-N-{[7-(2-pyridinyl)-2,3-dihydro-1-benzofuran-2-yl]methyl}-4-isoxazolecarboxamide], at ALK2 [1], the “destabilization of ALK2 receptor kinase” value is given as “destabilization of ALK2 receptor kinase”. Regarding `Cc1cc(NS(=O)(=O)c2ccc3c(c2)C2C4CCC(C4)C2C(c2cccc(C(=O)O)c2)N3)no1` (centres unmarked) [compound 14, 3-{2-[(5-methyl-1,2-oxazol-3-yl)sulfamoyl]-5,6,6a,7,8,9,10,10a-octahydro-7,10-methanophenanthridin-6-yl}benzoic acid], the “destabilization of ALK-2” value at ALK2 [2] is on record as “cause destabilization of ALK-2”. The same measure, in the same setting: next, `Cc1nc(-c2cccc(S(=O)(=O)N3CCC(C(=O)NCCc4nc5ccccc5[nH]4)CC3)c2)no1` [compound 17, N-[2-(1H-1,3-benzodiazol-2-yl)ethyl]-1-[3-(5-methyl-1,2,4-oxadiazol-3-yl)benzenesulfonyl]piperidine-4-carboxamide]: “cause destabilization of ALK-2”; `Cc1nc(-c2cccc(S(=O)(=O)N3CCC(C(=O)Nc4cccc5c4CCCC5)CC3)c2)no1` [compound 19, 1-[3-(5-methyl-1,2,4-oxadiazol-3-yl)benzenesulfonyl]-N-(5,6,7,8-tetrahydronaphthalen-1-yl)piperidine-4-carboxamide]: “cause destabilization of ALK-2”; `Cc1nc(-c2cccc(N3CC(C(=O)N4CCN(Cc5ccc6c(c5)OCO6)CC4)CC3=O)c2)no1` (centres unmarked) [compound 20, 4-[4-(1,3-benzodioxol-5-ylmethyl)piperazine-1-carbonyl]-1-[3-(5-methyl-1,2,4-oxadiazol-3-yl)phenyl]pyrrolidin-2-one]: “cause destabilization of ALK-2”. On the same count and under the same terms, the value for `Cc1nc(NS(=O)(=O)c2ccc3c(c2)C2C4CCC(C4)C2C(c2cccc(C(=O)O)c2)N3)oc1C` (centres unmarked) [compound 24, 3-{2-[(4,5-dimethyl-1,3-oxazol-2-yl)sulfamoyl]-5,6,6a,7,8,9,10,10a-octahydro-7,10-methanophenanthridin-6-yl}benzoic acid] was “cause destabilization of ALK-2”; that for `Cc1cccc(-c2cccc(NC(=O)C3CCCN(C(=O)c4ccnc(N)c4)C3)c2)c1` (centres unmarked) [compound 28, 1-(2-aminoisonicotinoyl)-N-(3′-methyl-3-biphenylyl)-3-piperidinecarboxamide] was “cause destabilization of ALK-2”.
